Reference: PubChem BioAssay (NCI)
“And” between values parts separate entries of the source, which are not always exact repeats. Equal values may be shown once.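 Tested at 5 concentrations; 48 h exposure; 96-well plates; endpoints linearly interpolated, else capped at highest concentration. The concentration for 50% growth inhibition is given as GI50. TGI marks complete inhibition of growth.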

Tests used:
Assay in all cases: NCI anticancer screen, dose series, 48 h
SK-MEL-5 melanoma = tested on: SK-MEL-5 melanoma
MALME-3M melanoma = tested on: MALME-3M melanoma
UO-31 renal = tested on: UO-31 renal
SF-268 CNS = tested on: SF-268 CNS
SK-OV-3 ovarian = tested on: SK-OV-3 ovarian
HL-60(TB) leukemia = tested on: HL-60(TB) leukemia
K-562 leukemia = tested on: K-562 leukemia
CCRF-CEM leukemia = tested on: CCRF-CEM leukemia
OVCAR-5 ovarian = tested on: OVCAR-5 ovarian
NCI-H23 lung = tested on: NCI-H23 lung

| Compound | TGI (SK-MEL-5 melanoma) | TGI (MALME-3M melanoma) | TGI (UO-31 renal) | TGI (SF-268 CNS) | TGI (SK-OV-3 ovarian) | TGI (HL-60(TB) leukemia) [µM] | TGI (K-562 leukemia) [µM] | TGI (CCRF-CEM leukemia) [µM] | TGI (OVCAR-5 ovarian) | TGI (NCI-H23 lung) | GI50 (SK-MEL-5 melanoma) [µM] | GI50 (MALME-3M melanoma) | GI50 (UO-31 renal) [µM] | GI50 (SF-268 CNS) [µM] | GI50 (SK-OV-3 ovarian) [µM] | GI50 (HL-60(TB) leukemia) [µM] | GI50 (K-562 leukemia) | GI50 (CCRF-CEM leukemia) [µM] | GI50 (OVCAR-5 ovarian) | GI50 (NCI-H23 lung) [µM] |
| --- | --- | --- | --- | --- | --- | --- | --- | --- | --- | --- | --- | --- | --- | --- | --- | --- | --- | --- | --- | --- |
| CCOc1ccccc1NC(=O)CCc1nc(=S)[nH][nH]1 | > 100 µM | > 100 µM | > 100 µM | > 100 µM | > 100 µM | > 100 | > 100 | > 100 | > 100 µM | > 100 µM | – | – | – | – | – | – | – | – | – | – |
| Cc1c2cc[n+](C)cc2c(C)c2c1[nH]c1ccc(O)c(OCC(F)(F)F)c12 | 11.6 µM | 8.47 µM | 25.6 µM | 1.1 µM | 17.2 µM | 13 | 17 | 28.4 | 30.5 µM | 5.48 µM | – | – | – | – | – | – | – | – | – | – |
| COC(=O)c1nc(N)[nH]c(=O)c1CCCCCc1c(C(=O)OC)nc(N)[nH]c1=O | > 50 µM | > 50 µM | > 50 µM | > 50 µM | > 50 µM | > 50 | > 50 | > 50 | > 50 µM | > 50 µM | – | – | – | – | – | – | – | – | – | – |
| COc1cc2nc(-c3ccc(C(F)(F)F)cc3)cc(OCCCN3CCCCC3)c2cc1OC | 1.2 µM | 4.03 µM | 12.5 µM | 24.6 µM | 23.3 µM | 18.3 | 10.4 | 10.6 | 16.5 µM | 11.1 µM | 0.325 | 1.26 µM | 2 | 3.76 | 2.3 | 2.91 | 0.578 µM | 1.83 | 0.71 µM | 1.91 |
| O=C(O)CSc1ncccc1[N+](=O)[O-] | > 100 µM | > 100 µM | > 100 µM | > 100 µM | > 100 µM | > 100 | > 100 | > 100 | > 100 µM | > 100 µM | – | – | – | – | – | – | – | – | – | – |
| Cc1nc(C(N)=S)sc1C(=O)C/C(=N/N)C(=O)Nc1cccc(Cl)c1C | > 100 µM | > 100 µM | > 100 µM | > 100 µM | > 100 µM | > 100 | > 100 | > 100 | > 100 µM | > 100 µM | – | – | – | – | – | – | – | – | – | – |
| N#CC(NNC(=O)c1ccccc1O)c1cccc(O)c1 (stereo unspecified) | > 100 µM | > 100 µM | 5.63 µM | > 100 µM | > 100 µM | 73.9 | > 100 | > 100 | > 100 µM | 21.3 µM | – | – | – | – | – | – | – | – | – | – |
| COc1ccc(-c2cn[nH]c2-c2cc(OC)c3c(c2)OCCO3)cc1 | 8.08 µM | 58.7 µM | 42 µM | > 74.2 µM | 35.5 µM | 13 | > 100 | > 73.9 | > 100 µM | > 100 µM | 0.0717 | 20.9 µM | 0.734 | 1.03 | 0.4 | 0.0815 | 0.0391 µM | 0.298 | 0.683 µM | 0.599 |
| C[C@]12CC[C@@H]3c4ccc(O)cc4C(O)C[C@H]3[C@@H]1CCC2=O (stereo partly specified) | > 100 µM | > 100 µM | > 100 µM | > 100 µM | > 100 µM | > 100 | > 100 | > 100 | > 100 µM | > 100 µM | > 100 | > 100 µM | 53.8 | > 100 | > 100 | > 100 | > 100 µM | > 100 | > 100 µM | > 100 |
| CCOC(=O)c1cc(/C=C/C(C)=C/C(=O)OC)n(C)c1C | > 100 µM | > 100 µM | > 100 µM | > 100 µM | > 100 µM | > 100 | > 100 | > 100 | > 100 µM | > 100 µM | – | – | – | – | – | – | – | – | – | – |
| CC[C@@]1(O)C(=O)OCc2c1cc1n(c2=O)Cc2cc3cc(N)ccc3nc2-1 | 0.195 µM and 0.0366 µM | 1.21 µM and 0.478 µM | 0.169 µM and 0.0358 µM | 1.04 µM and 0.146 µM | 2.64 µM and 0.756 µM | 1.03 | – | – | 0.109 µM and 0.627 µM | 0.0773 µM and 0.0247 µM | 0.0238 | 0.101 µM and 0.037 µM | 0.0117 | – | 0.035 | 0.0718 | 0.0512 µM and 0.043 µM | 0.1 | 0.0195 µM and 0.11 µM | – |
| Fc1cccc(Cl)c1/C=N\N=C1c2ccccc2-c2ccccc21 | > 100 µM | > 100 µM | > 100 µM | > 100 µM | > 100 µM | > 100 | > 100 | > 100 | > 100 µM | > 100 µM | – | – | – | – | – | – | – | – | – | – |
| Nc1nc(CCC(=O)Nc2cccc(C(F)(F)F)c2)cc(-c2ccc3ccccc3c2)n1 | > 100 µM | > 100 µM | > 100 µM | > 100 µM | > 100 µM | > 100 | > 100 | > 100 | > 100 µM | > 100 µM | – | – | – | – | – | – | – | – | – | – |
| CCN1CSC(=S)N(CC)C1 | > 100 µM | > 100 µM | > 100 µM | > 100 µM | > 100 µM | 47.4 | > 100 | > 100 | > 100 µM | > 100 µM | – | – | – | – | – | – | – | – | – | – |
| C=C=C(C(=O)OC)S(=O)c1ccc([N+](=O)[O-])cc1[N+](=O)[O-] (stereo unspecified) | > 100 µM | > 86.2 µM | 98.2 µM | > 74.6 µM | > 100 µM | 45.3 | 46.3 | 32.5 | > 100 µM | > 87.3 µM | – | – | – | – | – | – | – | – | – | – |
| CC1(C)C2CCC3(C2)CS(=O)(=O)N2OC231 (stereo unspecified) | 44.8 µM | 28.8 µM | 31.3 µM | 47.2 µM | > 100 µM | 43.3 | 54.6 | > 100 | 71.9 µM | 33.4 µM | – | – | – | – | – | – | – | – | – | – |
| C[C-](O)O.O/C(=C\[C-](O)c1ccccc1)c1ccccc1.O/C(=C\[C-](O)c1ccccc1)c1ccccc1.[Nd+3] (stereo unspecified) | 18 µM | 65.9 µM | 16 µM | 32.5 µM | 64.7 µM | 8.7 | 16.4 | 15.3 | 33.1 µM | 29.4 µM | 5.22 | 16.8 µM | 3.73 | 6.44 | 16.8 | 2.03 | 3.78 µM | 2.21 | 12.6 µM | 4.69 |
| NC(=O)c1ccc(C2C3=C(CCCC3=O)OC3=C2C(=O)c2ccccc2C3=O)cc1 (stereo unspecified) | 1.73 µM | 0.986 µM | 2.91 µM | 1.93 µM | 4.11 µM | 0.538 | 1.96 | 2.21 | 3.92 µM | 1.14 µM | 0.493 | 0.332 µM | 1.54 | 0.466 | 2.12 | 0.239 | 0.391 µM | 0.35 | 1.91 µM | 0.202 |
